This note sets out measurements from the Kinase Knowledgebase extract (Sharma et al. 2016).

For test [1], the target named is PIK3CG (human) (UniProt P48736). Kind of test: Cell-Based Assay. The settings on record: u937.
Test [2] addresses PIK3CD (Human) (UniProt O00329). Kind of test: Cell-Based Assay. The following applies: rat-1.
In test [3] the target is PIK3CA (human) (UniProt P42336). Kind of test: Cell-Based Assay. The following applies: rat-1.
Test [4] concerns the target PIK3CG (human) (UniProt P48736). Kind of test: Enzyme Assay.
Test [5] deals with PIK3CD (Human) (UniProt O00329). In words: Enzyme Assay.
Test [6] concerns the target PIK3CA (human) (UniProt P42336). In words: Enzyme Assay.

PIK3CA (human), sequence (P42336 whole entry, looked up): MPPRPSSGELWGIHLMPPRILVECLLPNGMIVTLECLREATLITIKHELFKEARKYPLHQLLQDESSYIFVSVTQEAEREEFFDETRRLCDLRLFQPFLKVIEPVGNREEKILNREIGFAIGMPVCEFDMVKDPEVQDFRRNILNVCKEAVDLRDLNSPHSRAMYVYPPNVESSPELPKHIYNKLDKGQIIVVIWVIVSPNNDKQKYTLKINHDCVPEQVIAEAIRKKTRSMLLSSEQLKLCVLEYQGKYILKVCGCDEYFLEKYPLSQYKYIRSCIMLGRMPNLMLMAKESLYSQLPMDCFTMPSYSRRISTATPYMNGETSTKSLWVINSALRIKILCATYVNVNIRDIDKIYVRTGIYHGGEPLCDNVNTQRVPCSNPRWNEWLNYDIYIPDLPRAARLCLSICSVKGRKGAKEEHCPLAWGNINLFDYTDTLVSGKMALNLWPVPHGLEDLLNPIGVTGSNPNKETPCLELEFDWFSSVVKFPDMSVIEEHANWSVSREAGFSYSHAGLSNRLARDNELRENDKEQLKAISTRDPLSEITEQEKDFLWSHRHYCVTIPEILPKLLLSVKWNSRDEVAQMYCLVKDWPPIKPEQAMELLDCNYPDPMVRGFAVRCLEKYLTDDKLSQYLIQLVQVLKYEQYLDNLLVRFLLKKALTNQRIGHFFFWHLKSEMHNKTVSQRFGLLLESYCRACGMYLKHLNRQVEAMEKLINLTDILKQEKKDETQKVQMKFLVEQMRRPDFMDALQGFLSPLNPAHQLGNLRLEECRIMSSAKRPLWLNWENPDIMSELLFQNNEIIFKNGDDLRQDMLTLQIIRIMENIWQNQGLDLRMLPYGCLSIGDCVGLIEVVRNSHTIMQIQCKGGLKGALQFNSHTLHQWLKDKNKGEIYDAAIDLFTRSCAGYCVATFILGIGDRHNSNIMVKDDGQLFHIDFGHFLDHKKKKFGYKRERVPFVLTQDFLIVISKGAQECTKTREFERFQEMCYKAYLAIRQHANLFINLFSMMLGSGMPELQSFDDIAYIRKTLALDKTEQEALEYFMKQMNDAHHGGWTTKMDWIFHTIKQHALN
PIK3CD (Human), sequence (O00329 whole entry, looked up): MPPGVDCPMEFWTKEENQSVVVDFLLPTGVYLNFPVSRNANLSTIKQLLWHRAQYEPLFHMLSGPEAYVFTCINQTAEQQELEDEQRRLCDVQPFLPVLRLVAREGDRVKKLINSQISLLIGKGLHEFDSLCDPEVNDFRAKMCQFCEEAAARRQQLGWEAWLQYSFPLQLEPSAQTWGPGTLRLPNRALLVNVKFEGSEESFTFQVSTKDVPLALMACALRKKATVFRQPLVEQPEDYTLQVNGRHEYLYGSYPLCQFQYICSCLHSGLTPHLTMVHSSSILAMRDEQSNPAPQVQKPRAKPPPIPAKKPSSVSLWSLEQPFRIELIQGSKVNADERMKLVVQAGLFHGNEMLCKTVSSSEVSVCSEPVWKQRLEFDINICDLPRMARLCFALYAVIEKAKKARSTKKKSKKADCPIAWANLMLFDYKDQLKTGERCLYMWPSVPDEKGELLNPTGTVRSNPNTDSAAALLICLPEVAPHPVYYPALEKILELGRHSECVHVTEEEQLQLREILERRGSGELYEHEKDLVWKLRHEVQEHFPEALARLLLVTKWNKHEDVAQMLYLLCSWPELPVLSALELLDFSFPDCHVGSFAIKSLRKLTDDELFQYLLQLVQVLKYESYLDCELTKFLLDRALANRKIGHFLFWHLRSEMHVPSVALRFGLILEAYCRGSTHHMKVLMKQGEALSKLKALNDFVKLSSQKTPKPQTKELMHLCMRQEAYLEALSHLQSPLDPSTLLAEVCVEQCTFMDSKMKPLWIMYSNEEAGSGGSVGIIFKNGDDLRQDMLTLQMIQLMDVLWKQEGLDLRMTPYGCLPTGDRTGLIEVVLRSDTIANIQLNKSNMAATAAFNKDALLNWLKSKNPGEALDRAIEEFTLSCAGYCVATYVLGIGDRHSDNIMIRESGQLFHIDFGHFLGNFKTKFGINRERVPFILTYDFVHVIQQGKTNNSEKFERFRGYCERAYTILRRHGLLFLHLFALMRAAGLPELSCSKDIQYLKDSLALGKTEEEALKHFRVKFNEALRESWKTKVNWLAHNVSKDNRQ
PIK3CG (human), sequence (P48736 whole entry, looked up): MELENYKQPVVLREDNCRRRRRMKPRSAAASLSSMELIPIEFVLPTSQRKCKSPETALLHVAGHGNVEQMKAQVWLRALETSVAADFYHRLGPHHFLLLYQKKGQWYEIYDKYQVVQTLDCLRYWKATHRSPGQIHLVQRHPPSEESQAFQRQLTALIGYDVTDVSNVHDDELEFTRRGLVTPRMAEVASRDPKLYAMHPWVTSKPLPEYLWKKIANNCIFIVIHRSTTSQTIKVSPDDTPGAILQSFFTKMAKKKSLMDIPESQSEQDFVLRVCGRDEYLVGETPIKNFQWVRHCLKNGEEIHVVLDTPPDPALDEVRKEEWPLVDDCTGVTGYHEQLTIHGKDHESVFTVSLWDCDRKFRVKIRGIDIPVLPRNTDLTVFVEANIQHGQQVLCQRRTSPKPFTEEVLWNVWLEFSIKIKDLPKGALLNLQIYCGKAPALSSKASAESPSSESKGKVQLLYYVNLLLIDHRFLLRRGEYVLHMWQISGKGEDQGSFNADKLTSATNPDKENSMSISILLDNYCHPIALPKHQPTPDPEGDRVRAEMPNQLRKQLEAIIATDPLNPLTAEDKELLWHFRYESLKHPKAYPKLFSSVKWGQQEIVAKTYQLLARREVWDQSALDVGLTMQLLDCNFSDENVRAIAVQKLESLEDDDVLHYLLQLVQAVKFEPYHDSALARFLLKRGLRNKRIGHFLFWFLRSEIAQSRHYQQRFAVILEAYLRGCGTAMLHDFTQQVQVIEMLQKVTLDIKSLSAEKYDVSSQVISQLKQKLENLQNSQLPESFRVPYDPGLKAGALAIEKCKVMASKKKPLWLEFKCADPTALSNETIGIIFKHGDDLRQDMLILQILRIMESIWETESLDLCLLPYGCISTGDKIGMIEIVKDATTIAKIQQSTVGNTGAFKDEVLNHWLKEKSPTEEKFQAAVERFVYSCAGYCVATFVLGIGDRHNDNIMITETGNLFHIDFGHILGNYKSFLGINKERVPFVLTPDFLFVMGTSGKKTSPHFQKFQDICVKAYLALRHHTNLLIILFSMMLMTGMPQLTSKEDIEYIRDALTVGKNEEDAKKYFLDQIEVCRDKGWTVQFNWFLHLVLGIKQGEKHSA

Usually IC50 stands for the concentration that inhibits the measured activity by half. A higher IC50 goes with weaker potency. For the compound `Cc1nc(N)nc(N2CCC[C@H]2c2nc3cccc(F)c3c(=O)n2-c2ccccc2)c1C#N`, the IC50 on PIK3CG (human) [1] was 115 nM; against PIK3CD (Human) [2], 9 nM; on PIK3CA (human) [3] it was 2.87 µM; against PIK3CG (human) [4] it was 64 nM; against PIK3CD (Human) [5], 21 nM; on PIK3CA (human) [6], 330 nM.

As for `Nc1nc(N2CSC[C@H]2c2nc3cccc(Cl)c3c(=O)n2-c2ccccc2)c2nc[nH]c2n1`, the half-inhibitory concentration (IC50) against PIK3CG (human) [1] was 119 nM; against PIK3CD (Human) [2] it was 46 nM; on PIK3CA (human) [3], 6.63 µM; against PIK3CG (human) [4], 23 nM; against PIK3CD (Human) [5], 11 nM; against PIK3CA (human) [6], 2300 nM.

Turning to `N#Cc1c(N)ncnc1N1CCC[C@H]1c1nc2cccc(C(F)(F)F)c2c(=O)n1-c1cccc(F)c1`, the IC50 on PIK3CG (human) [1] is 718 nM; on PIK3CD (Human) [2], 38 nM; on PIK3CA (human) [3], 9.95 µM; against PIK3CG (human) [4], 660 nM; against PIK3CD (Human) [5], 19 nM; on PIK3CA (human) [6] it was 5600 nM.

Turning to `O=c1c2c(C(F)(F)F)cccc2nc([C@@H]2C[C@H](O)CN2c2ncnc3[nH]cnc23)n1-c1ccccc1`, the 50% inhibitory concentration (IC50) amounted to 34 nM on PIK3CG (human) [1]; 91 nM on PIK3CD (Human) [2]; 7.22 µM on PIK3CA (human) [3]; 210 nM against PIK3CG (human) [4]; 16 nM against PIK3CD (Human) [5]; 1400 nM against PIK3CA (human) [6].

For the compound `Cc1nc(N)nc(N2C[C@@H](F)C[C@H]2c2nc3cccc(C(F)(F)F)c3c(=O)n2-c2cccnc2)c1C#N`, the IC50 against PIK3CG (human) [1] was 53 nM; on PIK3CD (Human) [2], 23 nM; on PIK3CA (human) [3], 4.2 µM; on PIK3CG (human) [4] it was 35 nM; against PIK3CD (Human) [5], 26 nM; on PIK3CA (human) [6], 1300 nM.

Regarding `CO[C@H]1C[C@@H](c2nc3cccc(Cl)c3c(=O)n2-c2ccccc2)N(c2nc(N)nc(C)c2C#N)C1`, the IC50 on PIK3CG (human) [1] stood at 38 nM; against PIK3CD (Human) [2], 6 nM; on PIK3CA (human) [3] it was 1.32 µM; at PIK3CG (human) [4] it was 30 nM; on PIK3CD (Human) [5] it was 53 nM; against PIK3CA (human) [6], 565 nM.

As to `Nc1nc(N2CCC[C@H]2c2nc3cccc(Cl)c3c(=O)n2N2CCOCC2)c2nc[nH]c2n1`, the IC50 is 1820 nM at PIK3CG (human) [1]; 65 nM against PIK3CD (Human) [2]; more than 10 µM against PIK3CA (human) [3]; 63 nM on PIK3CG (human) [4]; 42 nM at PIK3CD (Human) [5]; 4600 nM against PIK3CA (human) [6].

With `Cc1nc(N)nc(N2C[C@@H](O)C[C@H]2c2nc3cccc(C)c3c(=O)n2-c2ccccc2)c1C#N`, the IC50 on PIK3CG (human) [1] was 35 nM; against PIK3CD (Human) [2], less than 3 nM; against PIK3CA (human) [3] it was 0.601 µM; on PIK3CG (human) [4], less than 3 nM; against PIK3CD (Human) [5] it was less than 3 nM; against PIK3CA (human) [6], 160 nM.

Take `Cc1nc(N)nc(N2C[C@@H](F)C[C@H]2c2nc3cccc(C(F)(F)F)c3c(=O)n2-c2cccc(F)c2)c1C#N`: the concentration for half-maximal inhibition (IC50) is 42 nM against PIK3CG (human) [1]; 14 nM at PIK3CD (Human) [2]; 3.41 µM against PIK3CA (human) [3]; 42 nM against PIK3CG (human) [4]; 14 nM on PIK3CD (Human) [5]; 910 nM on PIK3CA (human) [6].

For `CO[C@H]1C[C@@H](c2nc3cccc(Cl)c3c(=O)n2-c2ccccc2)N(c2nc(N)nn3ccnc23)C1`, the half-inhibitory concentration (IC50) is 793 nM at PIK3CG (human) [1]; 204 nM against PIK3CD (Human) [2]; more than 10 µM on PIK3CA (human) [3]; 78 nM on PIK3CG (human) [4]; 140 nM against PIK3CD (Human) [5]; 7200 nM against PIK3CA (human) [6].

As to `Cc1nc(N)nc(N2CCC[C@H]2c2nc3cccc(S(C)(=O)=O)c3c(=O)n2-c2ccccc2)c1C#N`, the IC50 worked out at 343 nM on PIK3CG (human) [1]; 42 nM at PIK3CD (Human) [2]; 4.6 µM on PIK3CA (human) [3]; 75 nM on PIK3CG (human) [4]; 13 nM at PIK3CD (Human) [5]; 1100 nM against PIK3CA (human) [6].
